Data taken from ChEMBL document CHEMBL5724806, “Unraveling interindividual differences and functional consequences of gut microbial metabolism of immunosuppressants” (2024).

What was measured:
Format in all cases: ADME
[1] = The drug is tested on the gut metagenome community of A-09 with ENA study accession number: PRJEB31790 for biotransformation under anaerobic condition. The drug concentrations were measured over 7 timepoints collected between 0 and 12 hours of incubation by liquid-chromatography-coupled mass spectrometry (LC–MS); design: dose 5 uM, timepoint 0, 0.75, 1.5, 3, 6, 9, 12 hours; details: 5 µM
[2] = The drug is tested on the gut metagenome community of P-01 with ENA study accession number: PRJEB31790 for biotransformation under microaerobic condition. The drug concentrations were measured over 7 timepoints collected between 0 and 12 hours of incubation by liquid-chromatography-coupled mass spectrometry (LC–MS); design: dose 5 uM, timepoint 0, 0.75, 1.5, 3, 6, 9, 12 hours; details: 5 µM
[3] = The drug is tested on the gut metagenome community of A-04 with ENA study accession number: PRJEB31790 for biotransformation under microaerobic condition. The drug concentrations were measured over 7 timepoints collected between 0 and 12 hours of incubation by liquid-chromatography-coupled mass spectrometry (LC–MS); design: dose 5 uM, timepoint 0, 0.75, 1.5, 3, 6, 9, 12 hours; details: 5 µM
[4] = The drug is tested on the gut metagenome community of A-03 with ENA study accession number: PRJEB31790 for biotransformation under microaerobic condition. The drug concentrations were measured over 7 timepoints collected between 0 and 12 hours of incubation by liquid-chromatography-coupled mass spectrometry (LC–MS); design: dose 5 uM, timepoint 0, 0.75, 1.5, 3, 6, 9, 12 hours; details: 5 µM
[5] = The drug is tested on Bacteroides uniformis strain: DSM6597 for biotransformation under anaerobic condition. The drug concentrations were measured over 6 timepoints collected between 0 and 12 hours of incubation by liquid-chromatography-coupled mass spectrometry (LC–MS); design: dose 5 uM, timepoint 0, 1.5, 3, 6, 9, 12 hours; details: 5 µM
[6] = The drug is tested on Bacteroides vulgatus strain: DSM1447 for biotransformation under anaerobic condition. The drug concentrations were measured over 6 timepoints collected between 0 and 12 hours of incubation by liquid-chromatography-coupled mass spectrometry (LC–MS); design: dose 5 uM, timepoint 0, 1.5, 3, 6, 9, 12 hours; details: phocaeicola vulgatus, 5 µM
[7] = The drug is tested on Actinomyces naeslundi strain: DSM43013 for biotransformation under anaerobic condition. The drug concentrations were measured over 6 timepoints collected between 0 and 12 hours of incubation by liquid-chromatography-coupled mass spectrometry (LC–MS); design: dose 5 uM, timepoint 0, 1.5, 3, 6, 9, 12 hours; details: actinomyces naeslundii, 5 µM
[8] = The drug is tested on Akkermansia muciniphila strain: DSM22959 for biotransformation under anaerobic condition. The drug concentrations were measured over 6 timepoints collected between 0 and 12 hours of incubation by liquid-chromatography-coupled mass spectrometry (LC–MS); design: dose 5 uM, timepoint 0, 1.5, 3, 6, 9, 12 hours; details: 5 µM
[9] = The drug is tested on Eubacterium hallii strain: DSM3353 for biotransformation under anaerobic condition. The drug concentrations were measured over 6 timepoints collected between 0 and 12 hours of incubation by liquid-chromatography-coupled mass spectrometry (LC–MS); design: dose 5 uM, timepoint 0, 1.5, 3, 6, 9, 12 hours; details: anaerobutyricum hallii, 5 µM
[10] = The drug is tested on the gut metagenome community of A-03 with ENA study accession number: PRJEB31790 for biotransformation under anaerobic condition. The drug concentrations were measured over 7 timepoints collected between 0 and 12 hours of incubation by liquid-chromatography-coupled mass spectrometry (LC–MS); design: dose 5 uM, timepoint 0, 0.75, 1.5, 3, 6, 9, 12 hours; details: 5 µM
[11] = The drug is tested on the gut metagenome community of T-01 with ENA study accession number: PRJEB31790 for biotransformation under anaerobic condition. The drug concentrations were measured over 7 timepoints collected between 0 and 12 hours of incubation by liquid-chromatography-coupled mass spectrometry (LC–MS); design: dose 5 uM, timepoint 0, 0.75, 1.5, 3, 6, 9, 12 hours; details: 5 µM
[12] = The drug is tested on Faecalibacterium prausnitzii strain: DSM17677 for biotransformation under anaerobic condition. The drug concentrations were measured over 6 timepoints collected between 0 and 12 hours of incubation by liquid-chromatography-coupled mass spectrometry (LC–MS); design: dose 5 uM, timepoint 0, 1.5, 3, 6, 9, 12 hours; details: faecalibacterium duncaniae, 5 µM
[13] = The drug is tested on Bacteroides xylanisolvens strain: HM 722 for biotransformation under anaerobic condition. The drug concentrations were measured over 6 timepoints collected between 0 and 12 hours of incubation by liquid-chromatography-coupled mass spectrometry (LC–MS); design: dose 5 uM, timepoint 0, 1.5, 3, 6, 9, 12 hours; details: 5 µM
[14] = The drug is tested on the gut metagenome community of T-05 with ENA study accession number: PRJEB31790 for biotransformation under microaerobic condition. The drug concentrations were measured over 7 timepoints collected between 0 and 12 hours of incubation by liquid-chromatography-coupled mass spectrometry (LC–MS); design: dose 5 uM, timepoint 0, 0.75, 1.5, 3, 6, 9, 12 hours; details: 5 µM
[15] = The drug is tested on Alloscardovia omnicolens strain: DSM21503 for biotransformation under anaerobic condition. The drug concentrations were measured over 6 timepoints collected between 0 and 12 hours of incubation by liquid-chromatography-coupled mass spectrometry (LC–MS); design: dose 5 uM, timepoint 0, 1.5, 3, 6, 9, 12 hours; details: 5 µM
[16] = The drug is tested on the gut metagenome community of A-01 with ENA study accession number: PRJEB31790 for biotransformation under anaerobic condition. The drug concentrations were measured over 7 timepoints collected between 0 and 12 hours of incubation by liquid-chromatography-coupled mass spectrometry (LC–MS); design: dose 5 uM, timepoint 0, 0.75, 1.5, 3, 6, 9, 12 hours; details: 5 µM
[17] = The drug is tested on the gut metagenome community of T-04 with ENA study accession number: PRJEB31790 for biotransformation under microaerobic condition. The drug concentrations were measured over 7 timepoints collected between 0 and 12 hours of incubation by liquid-chromatography-coupled mass spectrometry (LC–MS); design: dose 5 uM, timepoint 0, 0.75, 1.5, 3, 6, 9, 12 hours; details: 5 µM
[18] = The drug is tested on Lactobacillus ruminis strain: ATCC25644 for biotransformation under anaerobic condition. The drug concentrations were measured over 6 timepoints collected between 0 and 12 hours of incubation by liquid-chromatography-coupled mass spectrometry (LC–MS); design: dose 5 uM, timepoint 0, 1.5, 3, 6, 9, 12 hours; details: ligilactobacillus ruminis, 5 µM
[19] = The drug is tested on Streptococcus mitis strain: DSM12643 for biotransformation under anaerobic condition. The drug concentrations were measured over 6 timepoints collected between 0 and 12 hours of incubation by liquid-chromatography-coupled mass spectrometry (LC–MS); design: dose 5 uM, timepoint 0, 1.5, 3, 6, 9, 12 hours; details: 5 µM
[20] = The drug is tested on the gut metagenome community of A-10 with ENA study accession number: PRJEB31790 for biotransformation under anaerobic condition. The drug concentrations were measured over 7 timepoints collected between 0 and 12 hours of incubation by liquid-chromatography-coupled mass spectrometry (LC–MS); design: dose 5 uM, timepoint 0, 0.75, 1.5, 3, 6, 9, 12 hours; details: 5 µM
[21] = The drug is tested on Lactobacillus ruminis strain: ATCC25644 for biotransformation under microaerobic condition. The drug concentrations were measured over 6 timepoints collected between 0 and 12 hours of incubation by liquid-chromatography-coupled mass spectrometry (LC–MS); design: dose 5 uM, timepoint 0, 1.5, 3, 6, 9, 12 hours; details: ligilactobacillus ruminis, 5 µM
[22] = The drug is tested on the gut metagenome community of A-08 with ENA study accession number: PRJEB31790 for biotransformation under microaerobic condition. The drug concentrations were measured over 7 timepoints collected between 0 and 12 hours of incubation by liquid-chromatography-coupled mass spectrometry (LC–MS); design: dose 5 uM, timepoint 0, 0.75, 1.5, 3, 6, 9, 12 hours; details: 5 µM
[23] = The drug is tested on Bacteroides ovatus strain: ATCC 8483 for biotransformation under anaerobic condition. The drug concentrations were measured over 6 timepoints collected between 0 and 12 hours of incubation by liquid-chromatography-coupled mass spectrometry (LC–MS); design: dose 5 uM, timepoint 0, 1.5, 3, 6, 9, 12 hours; details: 5 µM
[24] = The drug is tested on Roseburia intestinalis strain: DSM14610 for biotransformation under anaerobic condition. The drug concentrations were measured over 6 timepoints collected between 0 and 12 hours of incubation by liquid-chromatography-coupled mass spectrometry (LC–MS); design: dose 5 uM, timepoint 0, 1.5, 3, 6, 9, 12 hours; details: 5 µM

Row | SMILES | Bacterial Biotransformation [1] | Bacterial Biotransformation [2] | Bacterial Biotransformation [3] | Bacterial Biotransformation [4] | Bacterial Biotransformation [5] | Bacterial Biotransformation [6] | Bacterial Biotransformation [7] | Bacterial Biotransformation [8] | Bacterial Biotransformation [9] | Bacterial Biotransformation [10] | Bacterial Biotransformation [11] | Bacterial Biotransformation [12] | Bacterial Biotransformation [13] | Bacterial Biotransformation [14] | Bacterial Biotransformation [15] | Bacterial Biotransformation [16] | Bacterial Biotransformation [17] | Bacterial Biotransformation [18] | Bacterial Biotransformation [19] | Bacterial Biotransformation [20] | further results
1 | CCOC(=O)C1=C(COCCN)NC(C)=C(C(=O)OC)C1c1ccccc1Cl (configuration not stated) [AMLODIPINE] | Compound NOT metabolized | Compound NOT metabolized | Compound NOT metabolized | Compound NOT metabolized | Compound NOT metabolized | Compound NOT metabolized | Compound NOT metabolized | Compound NOT metabolized | Compound NOT metabolized | Compound NOT metabolized | Compound NOT metabolized | Compound NOT metabolized | Compound NOT metabolized | Compound NOT metabolized | Compound NOT metabolized | Compound NOT metabolized | Compound NOT metabolized | Compound NOT metabolized | Compound NOT metabolized | Compound NOT metabolized | Bacterial Biotransformation [21]: Compound NOT metabolized; Bacterial Biotransformation [22]: Compound NOT metabolized; Bacterial Biotransformation [23]: Compound NOT metabolized; Bacterial Biotransformation [24]: Compound NOT metabolized
2 | CC(C)NCC(O)COc1ccc(CC(N)=O)cc1 (configuration not stated) [ATENOLOL] | Compound NOT metabolized | Compound NOT metabolized | Compound NOT metabolized | Compound NOT metabolized | Compound NOT metabolized | Compound NOT metabolized | Compound NOT metabolized | Compound NOT metabolized | Compound NOT metabolized | Compound NOT metabolized | Compound NOT metabolized | Compound NOT metabolized | Compound NOT metabolized | Compound NOT metabolized | Compound NOT metabolized | Compound NOT metabolized | Compound NOT metabolized | Compound NOT metabolized | Compound NOT metabolized | Compound NOT metabolized | Bacterial Biotransformation [21]: Compound NOT metabolized; Bacterial Biotransformation [22]: Compound NOT metabolized; Bacterial Biotransformation [23]: Compound NOT metabolized; Bacterial Biotransformation [24]: Compound NOT metabolized
3 | Cn1cnc([N+](=O)[O-])c1Sc1ncnc2nc[nH]c12 [AZATHIOPRINE] | Compound metabolized | Compound NOT metabolized | Compound metabolized | Compound metabolized | Compound metabolized | Compound metabolized | Compound NOT metabolized | Compound metabolized | Compound metabolized | Compound metabolized | Compound metabolized | Compound metabolized | Compound metabolized | Compound NOT metabolized | Compound metabolized | Compound NOT metabolized | Compound NOT metabolized | Compound NOT metabolized | Compound metabolized | Compound NOT metabolized | Bacterial Biotransformation [21]: Compound metabolized; Bacterial Biotransformation [22]: Compound metabolized; Bacterial Biotransformation [23]: Compound metabolized; Bacterial Biotransformation [24]: Compound metabolized
